The record followed here is ChEMBL document CHEMBL5465560, “Selectivity Literature for EUbOPEN Chemogenomic Library” (2024).

Test [1] addresses T1, Serine/threonine-protein kinase MAK (Homo sapiens) (UniProt P20794).
T1 sequence (whole entry): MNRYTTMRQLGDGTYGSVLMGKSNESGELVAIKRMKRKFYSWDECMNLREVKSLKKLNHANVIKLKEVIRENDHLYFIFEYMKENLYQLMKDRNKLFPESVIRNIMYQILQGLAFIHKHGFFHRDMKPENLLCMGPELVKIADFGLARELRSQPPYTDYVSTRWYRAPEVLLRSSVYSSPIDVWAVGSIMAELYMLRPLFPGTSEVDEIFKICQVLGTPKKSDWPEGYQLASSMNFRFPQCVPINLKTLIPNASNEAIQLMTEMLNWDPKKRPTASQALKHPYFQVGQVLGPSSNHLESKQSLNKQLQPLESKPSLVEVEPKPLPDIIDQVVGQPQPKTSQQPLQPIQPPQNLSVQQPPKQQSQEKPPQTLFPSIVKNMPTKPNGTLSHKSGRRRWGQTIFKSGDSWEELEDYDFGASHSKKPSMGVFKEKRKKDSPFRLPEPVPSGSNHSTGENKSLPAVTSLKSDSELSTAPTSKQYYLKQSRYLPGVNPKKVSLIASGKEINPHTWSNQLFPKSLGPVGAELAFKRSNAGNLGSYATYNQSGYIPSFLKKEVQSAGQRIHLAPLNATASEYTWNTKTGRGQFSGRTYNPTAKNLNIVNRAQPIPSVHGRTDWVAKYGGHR
Nature of the test: Selectivity interaction (Ambit KINOMEscan and KiNATiv profiling in Jurkat cells) EUB0000090b MAK. Conditions: at 1 µM. The class given is cell-based.

Test [2] has as its target Tyrosine-protein kinase Fer (Homo sapiens) (UniProt P16591). Nature of the test: Selectivity interaction (KinaseProfiler screening (Millipore)) EUB0000601a FER. As to conditions: at 3 µM.
In test [3] the target is Angiopoietin-1 receptor (Homo sapiens) (UniProt Q02763). Nature of the test: Selectivity interaction (KinaseProfiler screening (Millipore)) EUB0000601a TEK. As to conditions: at 3 µM.
Sequence of Angiopoietin-1 receptor (Homo sapiens) (Q02763 whole entry): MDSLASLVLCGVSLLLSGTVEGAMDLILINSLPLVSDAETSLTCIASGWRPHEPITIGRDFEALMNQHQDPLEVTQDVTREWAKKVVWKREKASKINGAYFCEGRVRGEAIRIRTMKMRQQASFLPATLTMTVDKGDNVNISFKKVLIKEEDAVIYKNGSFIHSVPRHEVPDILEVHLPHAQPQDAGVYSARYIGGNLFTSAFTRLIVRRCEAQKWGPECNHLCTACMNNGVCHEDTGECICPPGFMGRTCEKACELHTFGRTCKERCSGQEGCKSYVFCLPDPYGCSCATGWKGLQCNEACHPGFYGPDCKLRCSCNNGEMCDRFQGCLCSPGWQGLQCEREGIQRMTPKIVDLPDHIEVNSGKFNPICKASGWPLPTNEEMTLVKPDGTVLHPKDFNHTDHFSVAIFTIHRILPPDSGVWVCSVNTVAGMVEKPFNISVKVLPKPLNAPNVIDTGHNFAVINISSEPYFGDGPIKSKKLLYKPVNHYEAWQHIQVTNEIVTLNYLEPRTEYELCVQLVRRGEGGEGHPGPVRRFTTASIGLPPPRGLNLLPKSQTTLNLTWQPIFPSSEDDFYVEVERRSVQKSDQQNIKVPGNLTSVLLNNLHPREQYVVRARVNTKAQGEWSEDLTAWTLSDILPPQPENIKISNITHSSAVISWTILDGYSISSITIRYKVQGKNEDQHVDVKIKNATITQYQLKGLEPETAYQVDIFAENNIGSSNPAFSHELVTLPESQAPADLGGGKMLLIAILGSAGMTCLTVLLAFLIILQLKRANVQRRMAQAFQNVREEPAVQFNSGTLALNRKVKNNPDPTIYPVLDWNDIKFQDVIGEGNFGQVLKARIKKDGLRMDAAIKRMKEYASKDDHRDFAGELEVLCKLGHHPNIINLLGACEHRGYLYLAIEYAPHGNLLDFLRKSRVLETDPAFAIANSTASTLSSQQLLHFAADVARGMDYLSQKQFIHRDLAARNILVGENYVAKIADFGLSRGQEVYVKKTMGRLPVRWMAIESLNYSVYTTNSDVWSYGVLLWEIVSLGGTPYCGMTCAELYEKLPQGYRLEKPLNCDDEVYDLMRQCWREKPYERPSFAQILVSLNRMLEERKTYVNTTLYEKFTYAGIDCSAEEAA
The target in test [4] is Receptor-interacting serine/threonine-protein kinase 2 (Homo sapiens, UniProt O43353). Nature of the test: Selectivity interaction (KinomeScan (DiscoverX)) EUB0000695a RIPK2. As to conditions: at 100 nM.
Sequence of Receptor-interacting serine/threonine-protein kinase 2 (O43353 whole entry): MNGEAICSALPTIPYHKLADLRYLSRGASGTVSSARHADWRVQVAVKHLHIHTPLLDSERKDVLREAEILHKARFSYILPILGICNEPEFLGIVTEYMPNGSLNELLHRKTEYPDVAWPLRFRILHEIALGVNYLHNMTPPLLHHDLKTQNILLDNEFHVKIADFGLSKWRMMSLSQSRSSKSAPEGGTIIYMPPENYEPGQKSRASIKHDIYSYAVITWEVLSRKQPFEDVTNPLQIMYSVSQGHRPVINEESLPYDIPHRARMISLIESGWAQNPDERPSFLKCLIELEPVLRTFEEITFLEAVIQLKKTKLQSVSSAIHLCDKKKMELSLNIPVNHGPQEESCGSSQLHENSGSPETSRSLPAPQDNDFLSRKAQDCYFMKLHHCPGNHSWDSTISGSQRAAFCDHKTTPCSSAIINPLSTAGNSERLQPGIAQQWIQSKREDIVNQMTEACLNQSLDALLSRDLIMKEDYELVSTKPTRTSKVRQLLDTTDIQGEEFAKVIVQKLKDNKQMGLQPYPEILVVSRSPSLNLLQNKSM
Test [5] concerns the target Serine/threonine-protein kinase 38-like (Homo sapiens) (UniProt Q9Y2H1). Nature of the test: Selectivity interaction (KinomeScan (DiscoverX)) EUB0000045b STK38L.
The target of test [6] is T2, Serine/threonine-protein kinase D3 (Homo sapiens) (UniProt O94806).
T2 sequence (whole entry): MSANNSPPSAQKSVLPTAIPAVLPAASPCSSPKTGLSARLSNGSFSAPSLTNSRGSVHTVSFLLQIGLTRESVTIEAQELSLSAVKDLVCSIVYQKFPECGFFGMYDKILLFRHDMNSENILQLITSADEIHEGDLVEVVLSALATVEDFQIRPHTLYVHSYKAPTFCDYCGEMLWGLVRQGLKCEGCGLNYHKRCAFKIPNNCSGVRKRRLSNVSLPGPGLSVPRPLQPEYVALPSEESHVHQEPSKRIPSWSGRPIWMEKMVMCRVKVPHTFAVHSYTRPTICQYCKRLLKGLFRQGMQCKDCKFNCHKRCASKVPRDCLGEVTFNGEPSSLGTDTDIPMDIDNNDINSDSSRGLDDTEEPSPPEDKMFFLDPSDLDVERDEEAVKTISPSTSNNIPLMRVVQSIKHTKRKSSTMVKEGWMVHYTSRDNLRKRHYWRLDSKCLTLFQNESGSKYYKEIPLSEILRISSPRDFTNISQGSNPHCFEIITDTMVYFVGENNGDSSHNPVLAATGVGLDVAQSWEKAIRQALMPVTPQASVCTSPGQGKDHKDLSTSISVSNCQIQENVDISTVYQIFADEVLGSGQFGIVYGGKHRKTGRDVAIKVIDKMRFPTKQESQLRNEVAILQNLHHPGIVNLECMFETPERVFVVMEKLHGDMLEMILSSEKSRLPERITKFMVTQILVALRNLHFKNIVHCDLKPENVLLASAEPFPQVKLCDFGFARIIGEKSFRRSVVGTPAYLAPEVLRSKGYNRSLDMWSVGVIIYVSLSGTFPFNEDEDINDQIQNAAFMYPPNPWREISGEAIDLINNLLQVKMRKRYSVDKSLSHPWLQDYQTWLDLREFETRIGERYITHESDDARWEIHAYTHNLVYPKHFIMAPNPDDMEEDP
In words: Selectivity interaction (KinomeScan (DiscoverX)) EUB0000045b PRKD3.

The target in test [7] is T3, Mitogen-activated protein kinase kinase kinase 12 (Homo sapiens) (UniProt Q12852).
T3 sequence (whole entry): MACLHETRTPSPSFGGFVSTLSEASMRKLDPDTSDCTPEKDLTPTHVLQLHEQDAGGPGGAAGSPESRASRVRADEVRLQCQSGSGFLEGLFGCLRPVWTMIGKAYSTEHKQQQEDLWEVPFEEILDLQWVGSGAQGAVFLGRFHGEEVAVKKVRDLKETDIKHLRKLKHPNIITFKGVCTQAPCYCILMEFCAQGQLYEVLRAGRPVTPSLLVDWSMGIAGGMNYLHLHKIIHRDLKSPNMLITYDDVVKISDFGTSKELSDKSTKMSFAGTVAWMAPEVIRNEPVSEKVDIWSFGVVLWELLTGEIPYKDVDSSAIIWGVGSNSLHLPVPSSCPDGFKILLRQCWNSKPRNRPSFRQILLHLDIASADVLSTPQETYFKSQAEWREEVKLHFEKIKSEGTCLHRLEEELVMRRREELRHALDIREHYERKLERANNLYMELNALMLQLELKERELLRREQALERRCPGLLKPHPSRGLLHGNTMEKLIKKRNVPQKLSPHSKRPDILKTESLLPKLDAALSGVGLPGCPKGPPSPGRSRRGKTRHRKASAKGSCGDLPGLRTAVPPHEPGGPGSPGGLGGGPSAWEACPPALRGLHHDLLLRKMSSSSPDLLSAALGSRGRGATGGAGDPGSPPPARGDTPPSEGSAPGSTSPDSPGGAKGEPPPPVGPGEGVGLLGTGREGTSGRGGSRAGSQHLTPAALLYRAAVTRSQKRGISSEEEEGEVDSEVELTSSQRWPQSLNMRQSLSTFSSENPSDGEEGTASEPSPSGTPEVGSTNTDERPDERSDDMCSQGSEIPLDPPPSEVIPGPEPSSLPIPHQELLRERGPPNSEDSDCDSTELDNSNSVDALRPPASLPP
Nature of the test: Selectivity interaction (KinomeScan (DiscoverX)) EUB0000666a MAP3K12. Conditions: at 10 µM.

Test [8] addresses Mitogen-activated protein kinase 8 (Homo sapiens, UniProt P45983). Nature of the test: Selectivity interaction (KinomeScan (DiscoverX)) EUB0000618a MAPK8. As to conditions: at 10 µM.

Sequence of Serine/threonine-protein kinase 38-like (Homo sapiens) (Q9Y2H1 2-464 limits assumed): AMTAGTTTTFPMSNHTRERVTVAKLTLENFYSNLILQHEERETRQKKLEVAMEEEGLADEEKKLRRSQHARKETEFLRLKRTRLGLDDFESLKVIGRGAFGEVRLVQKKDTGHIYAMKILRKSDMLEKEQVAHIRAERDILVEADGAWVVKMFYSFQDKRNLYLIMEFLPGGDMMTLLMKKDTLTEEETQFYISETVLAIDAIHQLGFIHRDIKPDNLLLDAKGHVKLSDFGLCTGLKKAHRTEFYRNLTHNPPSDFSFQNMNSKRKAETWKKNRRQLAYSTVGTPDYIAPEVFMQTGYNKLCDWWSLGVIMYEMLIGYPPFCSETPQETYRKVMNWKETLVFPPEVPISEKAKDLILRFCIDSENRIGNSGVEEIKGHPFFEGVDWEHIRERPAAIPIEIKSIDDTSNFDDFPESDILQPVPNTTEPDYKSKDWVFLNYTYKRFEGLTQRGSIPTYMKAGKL
Sequence of Mitogen-activated protein kinase 8 (P45983 whole entry): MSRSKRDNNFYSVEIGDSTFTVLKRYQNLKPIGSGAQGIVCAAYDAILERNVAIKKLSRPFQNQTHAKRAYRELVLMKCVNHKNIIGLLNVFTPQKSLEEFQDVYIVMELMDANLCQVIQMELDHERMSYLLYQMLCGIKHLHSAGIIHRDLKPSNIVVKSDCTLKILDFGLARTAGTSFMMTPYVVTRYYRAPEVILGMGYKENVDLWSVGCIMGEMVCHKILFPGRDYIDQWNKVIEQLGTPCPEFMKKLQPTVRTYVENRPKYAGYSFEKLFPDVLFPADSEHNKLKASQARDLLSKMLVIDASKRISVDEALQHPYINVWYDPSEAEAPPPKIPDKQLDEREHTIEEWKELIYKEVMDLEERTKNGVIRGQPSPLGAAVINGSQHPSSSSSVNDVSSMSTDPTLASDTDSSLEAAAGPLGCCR
Sequence of Tyrosine-protein kinase Fer (Homo sapiens) (P16591 whole entry, looked up): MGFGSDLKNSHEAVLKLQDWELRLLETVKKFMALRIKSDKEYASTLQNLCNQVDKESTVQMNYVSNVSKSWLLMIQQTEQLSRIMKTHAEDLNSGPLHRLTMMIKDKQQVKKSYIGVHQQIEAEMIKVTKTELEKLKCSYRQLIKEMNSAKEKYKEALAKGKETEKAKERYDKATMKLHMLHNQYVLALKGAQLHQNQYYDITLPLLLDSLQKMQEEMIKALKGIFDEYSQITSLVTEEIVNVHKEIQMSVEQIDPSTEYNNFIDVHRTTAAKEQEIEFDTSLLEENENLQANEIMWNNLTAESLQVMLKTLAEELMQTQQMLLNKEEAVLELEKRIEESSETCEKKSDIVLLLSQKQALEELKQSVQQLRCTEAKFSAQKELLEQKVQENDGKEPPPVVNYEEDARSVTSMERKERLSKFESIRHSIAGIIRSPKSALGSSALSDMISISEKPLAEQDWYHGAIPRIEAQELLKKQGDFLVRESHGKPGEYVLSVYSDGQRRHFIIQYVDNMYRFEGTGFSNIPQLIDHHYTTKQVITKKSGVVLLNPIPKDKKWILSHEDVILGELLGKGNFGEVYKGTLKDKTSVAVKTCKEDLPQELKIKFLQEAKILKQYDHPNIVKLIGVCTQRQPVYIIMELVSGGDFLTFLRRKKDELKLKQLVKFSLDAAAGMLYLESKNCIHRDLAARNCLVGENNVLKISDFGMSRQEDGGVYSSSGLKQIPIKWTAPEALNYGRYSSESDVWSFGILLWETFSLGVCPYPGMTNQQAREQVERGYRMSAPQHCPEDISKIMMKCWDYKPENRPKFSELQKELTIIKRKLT

`CN(C)C/C=C/C(=O)Nc1ccc(C(=O)N2CCCC(Nc3ncc(Cl)c(-c4c[nH]c5ccccc45)n3)C2)cc1` (stereo not given) yielded a % of control in test [1] of 63%. Turning to `CCc1cc(Nc2nccc(-c3c(-c4ccc(OC)c(C(=O)Nc5c(F)cccc5F)c4)nc4ccccn34)n2)c(OC)cc1N1CCC(N2CCN(S(C)(=O)=O)CC2)CC1`, the % of inhibition in test [2] is 93%; in test [3], 41%. In test [4], `Cc1cc(F)c(C(=O)Nc2cccc(-c3nncn3C(C)C)n2)cc1-n1cnc(C2CC2)c1` had a % of control of 100%. For `C=CC(=O)Nc1cc(-n2c(=O)ccc3cnc4ccc(-c5ccc(NS(C)(=O)=O)cc5)cc4c32)ccc1C`, the % of control in test [5] (at 1 µM) is 100%; in test [5] (at 10 µM) it was 95%; in test [6] (at 1 µM) it was 82%; in test [6] (at 10 µM) it was 68%. With `O=C(NOC[C@H](O)CO)c1ccc(F)c(F)c1Nc1ccc(I)cc1F`, the % of control in test [7] was 78%. As for `O[C@H]1CC[C@H](Nc2ncc3nc(Nc4c(F)cc(F)cc4F)n([C@H]4CCOC4)c3n2)CC1`, the % of control in test [8] came out at 0%.
